# Reference: patent US20070078085A1, “Methods and compositions for the utilization and targeting of osteomimicry” (priority 2004, published 2007)
# Key:
# hBSP promoter = assay: hBSP promoter-luciferase reporter activity in transfected cells; assay type: cell-based, human; conditions: C4-2B cells; H-89 10^−8 to 10^−6 M for 2 h, then FSK 10^−6 M 16 h; concentration-dependent
# From the text: Plasmid Construction. Genomic DNA was used in the PCR of the 0.8-kb hOC promoter inserting KpnI and XhoI sites, subsequently cloned into pGL3-Basic-luciferase reporter vector (Promega, Madison, Wis.) as described before (9). The deletion constructs, ΔA [374 bp upstream of AP1/VDRE (AV) element], ΔTst-1 (POU-factor Tst-1/Oct-6 binding site), ΔCRE (cAMP-responsive element) and ΔIRF-1 (interferon regulatory factor-i binding site) in hOC promoter/pGL3 were generated by recombinant PCR technique. The point mutation plasmids in CRE (from -643 to -636 in hOC promoter, 5′-[…]-3′) were constructed with a QuikChange Site-Directed Mutagenesis Kit (Stratagene). […]
# Transfection and Luciferase Activity Assay. […] For luciferase activity assay, 20 μl of the lysate supernatant was mixed with 100 μl of the luciferase substrate (Promega) and detected by a luminometer (Monolight 3010, luminometer PharMingen, San Diego, Calif.). For β-galactosidase activity assay, 100 μl of the supernatant was mixed with 100 μl of 2×β-galactosidase substrate [200 mM sodium phosphate buffer, pH 7.3, 2 mM MgCl2, 100 mM β-mercaptoethanol and 1.33 mg/ml o-nitrophenyl-β-D-galactopyranoside (ONPG)], and incubated at 37° C. for 30 min. β-galactosidase activity was detected by Microplate spectrophotometer (Molecular Devices Corp., Sunnyvale, Calif.) at 405 nm wavelength. […]
# OC mRNA = assay: Semi-quantitative RT-PCR of endogenous OC mRNA; assay type: cell-based, human; conditions: LNCaP and C4-2B cells (data not shown)
# Method: Reverse Transcription-Polymerase Chain Reaction (RT-PCR) Analysis. Total RNA was isolated from confluent monolayers of cells using RNAZol B (Teltest Inc., Friendswood, Tex.). Five μg of total RNA was used as template and 0.15 μg of random hexanucleotide primers were added for reverse transcription and amplification in a reaction volume of 20 μl, according to the manufacturer's instruction (Invitrogen, Carlsbad, Calif.). After RT reaction, 3-5 μl of the 1st-strand cDNA was used for PCR with a PTC-100 programmable Thermal Controller (MJ Research Inc.). The oligonucleotide primer sets used for PCR analysis of cDNA are: hOC, 5′-[…]-3′ (forward) and 5′-[…]-3′ (reverse); hBSP, 5′-[…]-3′ (forward) and 5′-[…]-3′ (reverse); and glyceraldehyde phosphate dehydrogenase (GAPDH), 5′-[…]-3′ (forward) and 5′-[…]-3′ (reverse), respectively. The thermal profile for hOC amplification is 30 cycles starting with denaturation 1 min at 94° C., followed by 1 min of annealing at 55° C. and 1 min of extension at 72° C. For hBSP amplification the thermal profile is 35 cycles starting with denaturation 1 min at 94° C., followed by 30 s of annealing at 48° C. and 40 s of extension at 72° C. The program for GAPDH amplification is 25 cycles starting with denaturation 30 s at 94° C., followed by 30 s of annealing at 60° C. and 1 min of extension at 72° C. The RT-PCR products were analyzed by 1.2% agarose gel electrophoresis. Quantity one-4.1.1 Gel Doc gel documentation software (Bio-Rad) or NIH image were used for quantification of hOC and hBSP mRNA expression normalized by GAPDH mRNA expression.
compound,measurement,setting,value
"O=S(=O)(NCCNCC=Cc1ccc(Br)cc1)c1cccc2cnccc12 [H-89, N-[2-(p-bromocinnamylamino)ethyl]-5-isoquinolinesulfonamide]",FSK-stimulated hBSP promoter activity,hBSP promoter,inhibited
same,induction of endogenous OC mRNA expression by ARCaP CM or FSK,OC mRNA,inhibited
